#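 1) Cells in 96-well plates. 2) Compound, 48 h, 5 concentrations. 3) Linear interpolation between surrounding doses. 4) Unreached endpoint = highest concentration. At the GI50, growth is halved.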 Activity calls are given as the source filed them. Cut-off read from the data, not from the text of the source: active = GI50 up to about 1.1 µM and inactive = higher.
# Legend:
# Experiment in all cases: inhibition of tumour cell growth, NCI panel, 48 h
# [1] = test system: HT-29
# [2] = test system: COLO 205
# [3] = test system: OVCAR-8
# [4] = test system: SK-OV-3
# [5] = test system: BT-549
# [6] = test system: MDA-MB-231
# [7] = test system: K562
# [8] = test system: ACHN
# [9] = test system: TK-10
# [10] = test system: MDA-MB-435
# [11] = test system: RXF 393
# [12] = test system: HOP-62
# [13] = test system: NCI/ADR-RES
# [14] = test system: NCI-H522
# [15] = test system: UACC-257
# [16] = test system: SR
# [17] = test system: SF-295
# [18] = test system: MOLT-4
# [19] = test system: SF-539
# [20] = test system: HL-60
Compound,GI50 [1],GI50 [2],GI50 [3],GI50 [4],GI50 [5],GI50 [6],GI50 [7],GI50 [8],GI50 [9],GI50 [10],GI50 [11],GI50 [12],GI50 [13],GI50 [14],GI50 [15],GI50 [16],GI50 [17],GI50 [18],GI50 [19],GI50 [20]
Cn1c(N=[N+]=[N-])cc(=O)n(C)c1=O,> 100 µM (inactive),> 100 µM (inactive),> 100 µM (inactive),> 100 µM (inactive),> 100 µM (inactive),> 100 µM (inactive),> 100 µM (inactive),> 100 µM (inactive),> 100 µM (inactive),> 100 µM (inactive),> 100 µM (inactive),> 100 µM (inactive),> 100 µM (inactive),> 100 µM (inactive),> 100 µM (inactive),> 100 µM (inactive),> 100 µM (inactive),> 100 µM (inactive),> 100 µM (inactive),–
NC(=O)CNC(=O)[C@@H]1C[C@@H](OCCC(=O)O)CN1C(=O)OCc1ccccc1,> 100 µM (inactive),> 100 µM (inactive),> 10 µM (inactive),> 100 µM (inactive),> 100 µM (inactive),> 100 µM (inactive),> 100 µM (inactive),> 100 µM (inactive),> 100 µM (inactive),> 100 µM (inactive),> 100 µM (inactive),> 100 µM (inactive),> 100 µM (inactive),> 100 µM (inactive),> 100 µM (inactive),> 100 µM (inactive),> 100 µM (inactive),> 100 µM (inactive),–,> 100 µM (inactive)
CC(=O)Nc1ccc2nncnc2c1,> 100 µM (inactive),> 100 µM (inactive),> 10 µM (inactive),> 100 µM (inactive),> 100 µM (inactive),> 100 µM (inactive),> 100 µM (inactive),> 100 µM (inactive),> 100 µM (inactive),> 100 µM (inactive),–,> 100 µM (inactive),> 100 µM (inactive),> 100 µM (inactive),> 100 µM (inactive),> 100 µM (inactive),> 100 µM (inactive),> 100 µM (inactive),> 100 µM (inactive),> 100 µM (inactive)
O/N=C\c1c2c(cc3c1CCC3)CCC2,> 100 µM (inactive),> 100 µM (inactive),> 100 µM (inactive),> 100 µM (inactive),> 100 µM (inactive),> 100 µM (inactive),> 100 µM (inactive),> 100 µM (inactive),> 100 µM (inactive),> 100 µM (inactive),–,> 100 µM (inactive),> 100 µM (inactive),> 100 µM (inactive),> 100 µM (inactive),> 100 µM (inactive),> 100 µM (inactive),25 µM (inactive),> 100 µM (inactive),> 100 µM (inactive)
CO/C(=N\N=C\c1ccc(C(F)(F)F)cc1)c1ccncc1,> 10 µM (inactive),> 10 µM (inactive),> 10 µM (inactive),–,> 10 µM (inactive),> 10 µM (inactive),> 10 µM (inactive),> 10 µM (inactive),> 10 µM (inactive),> 10 µM (inactive),> 10 µM (inactive),> 10 µM (inactive),> 10 µM (inactive),> 10 µM (inactive),> 10 µM (inactive),> 10 µM (inactive),> 10 µM (inactive),> 10 µM (inactive),–,> 10 µM (inactive)
C/C=C(/C)C(=O)O[C@H]1CCN2CC=C(COC(=O)[C@@](O)([C@H](C)OC)C(C)(C)O)[C@H]12,> 100 µM (inactive),> 100 µM (inactive),> 100 µM (inactive),> 100 µM (inactive),> 100 µM (inactive),> 100 µM (inactive),> 100 µM (inactive),> 100 µM (inactive),> 100 µM (inactive),> 100 µM (inactive),–,> 100 µM (inactive),> 100 µM (inactive),> 100 µM (inactive),> 100 µM (inactive),> 100 µM (inactive),> 100 µM (inactive),> 100 µM (inactive),> 100 µM (inactive),> 100 µM (inactive)
COc1cccc([C@H]2CC(=O)c3cc4c(cc3N2)OCO4)c1,0.194 µM (active),0.296 µM (active),0.401 µM (active),0.419 µM (active),8.59 µM (inactive),0.424 µM (active),1.3 µM (inactive),0.847 µM (active),0.979 µM (active),0.0743 µM (active),0.171 µM (active),0.568 µM (active),0.296 µM (active),0.238 µM (active),0.91 µM (active),0.318 µM (active),0.296 µM (active),0.938 µM (active),0.274 µM (active),–
COc1cccc(C2c3cc4c(cc3OC(C)(N3CCCC3)C2C)OCO4)c1OC (configuration not stated),5.14 µM (inactive),7.67 µM (inactive),10.8 µM (inactive),5.82 µM (inactive),6.67 µM (inactive),19.5 µM (inactive),6.15 µM (inactive),3.83 µM (inactive),13.7 µM (inactive),14.8 µM (inactive),14.8 µM (inactive),14.3 µM (inactive),7.46 µM (inactive),13.9 µM (inactive),16 µM (inactive),4.31 µM (inactive),9.1 µM (inactive),5.11 µM (inactive),–,4.91 µM (inactive)
CCOC(=O)c1cc2cc([N+](=O)[O-])ccc2oc1=O,> 100 µM (inactive),> 100 µM (inactive),> 100 µM (inactive),–,> 100 µM (inactive),> 100 µM (inactive),41.2 µM (inactive),> 100 µM (inactive),–,> 100 µM (inactive),> 100 µM (inactive),> 100 µM (inactive),> 100 µM (inactive),> 100 µM (inactive),> 100 µM (inactive),> 100 µM (inactive),> 100 µM (inactive),> 100 µM (inactive),> 100 µM (inactive),99.5 µM (inactive)
O=[As](O)(O)c1ccc2nc3cc([As](=O)(O)O)ccc3nc2c1,> 100 µM (inactive),–,> 100 µM (inactive),–,> 100 µM (inactive),> 100 µM (inactive),> 100 µM (inactive),> 100 µM (inactive),> 100 µM (inactive),> 100 µM (inactive),> 100 µM (inactive),> 100 µM (inactive),> 100 µM (inactive),> 100 µM (inactive),> 100 µM (inactive),> 100 µM (inactive),> 100 µM (inactive),> 100 µM (inactive),–,–
Cc1c(C#N)c2nnn(-c3cccc(Cl)c3)c(=O)n2c1-c1ccccc1,1.28 µM (inactive),0.849 µM (active),5.31 µM (inactive),3.08 µM (inactive),18.1 µM (inactive),1.57 µM (inactive),0.541 µM (active),6.4 µM (inactive),9.91 µM (inactive),0.566 µM (active),1.85 µM (inactive),0.891 µM (active),3.1 µM (inactive),1.93 µM (inactive),26.3 µM (inactive),0.301 µM (active),1.45 µM (inactive),–,1.59 µM (inactive),3.28 µM (inactive)
ClC(Cl)(Cl)C1=N[C@H]2[C@H](Br)[C@@H]3O[C@@H](c4ccccc4)[C@H](c4ccccc4)O[C@@H]3[C@H]2O1,20.5 µM (inactive),16.3 µM (inactive),17.6 µM (inactive),18.5 µM (inactive),24.9 µM (inactive),23 µM (inactive),21.2 µM (inactive),17.3 µM (inactive),20.4 µM (inactive),20.7 µM (inactive),20.5 µM (inactive),18.6 µM (inactive),25.7 µM (inactive),10.9 µM (inactive),18.3 µM (inactive),21.1 µM (inactive),17.1 µM (inactive),18.2 µM (inactive),–,–
Cn1c2ccccc2n2c(=O)c(-c3ccc(Cl)cc3)nnc12,> 100 µM (inactive),> 100 µM (inactive),> 100 µM (inactive),–,> 100 µM (inactive),51.2 µM (inactive),–,> 100 µM (inactive),> 100 µM (inactive),> 100 µM (inactive),> 100 µM (inactive),–,> 100 µM (inactive),> 100 µM (inactive),> 100 µM (inactive),> 100 µM (inactive),> 100 µM (inactive),> 100 µM (inactive),43.3 µM (inactive),> 100 µM (inactive)
N#Cc1c(-c2ccccc2)[nH]c2ccccc2c1=O,> 100 µM (inactive),> 100 µM (inactive),97.9 µM (inactive),26.2 µM (inactive),25.8 µM (inactive),26.2 µM (inactive),59.4 µM (inactive),> 100 µM (inactive),32.8 µM (inactive),17.4 µM (inactive),30.7 µM (inactive),27.7 µM (inactive),> 100 µM (inactive),–,> 100 µM (inactive),> 100 µM (inactive),21.8 µM (inactive),> 100 µM (inactive),> 100 µM (inactive),90.4 µM (inactive)
NC(=O)c1nnc2cc(F)ccc2c1N,> 100 µM (inactive),> 100 µM (inactive),> 100 µM (inactive),85.5 µM (inactive),84.9 µM (inactive),> 100 µM (inactive),> 100 µM (inactive),80.4 µM (inactive),76.2 µM (inactive),> 100 µM (inactive),–,> 100 µM (inactive),> 100 µM (inactive),46.3 µM (inactive),> 100 µM (inactive),> 100 µM (inactive),> 100 µM (inactive),> 100 µM (inactive),> 100 µM (inactive),> 100 µM (inactive)

# — ChEMBL document CHEMBL1201862, “PubChem BioAssay data set” (2004)
